Assay results as given in ChEMBL document CHEMBL5046231, “Modulation of Naturally Occurring Linear Dipeptide Chirality to Reduce the Affinity for Oligopeptide Transporter 1 and Increase Intestinal Stability for an Enhanced Colon-Targeting Effect in the Treatment of Inflammatory Bowel Disease: An Application of trans-4-l-Hydroxyprolyl-l-serine” (J Med Chem, 2022).
Active and inactive are the calls of the source. The calls are words filed in the database; no cut-off is given here.

Experiments:
[1] = Tmax in healthy C57BL/6 mouse at 25 mg/kg, po measured up to 6 hrs by UPLC-MS/MS analysis; type: ADME, organism-based; details: in vivo
Mus musculus [2] = assay: Antiinflammatory activity in DSS-induced C57BL/6 mouse model of colitis assessed as decrease in […] level 25 to 100 mg/kg, po administered via gavage twice a day for 10 days; type: functional, organism-based; details: dose 25-100 mg/kg, time 10.0 day
Mus musculus [3] = assay: Anti-colitis activity against DSS-induced C57BL/6 mouse model of colitis assessed as fold change in body weight recovery at 25 to 100 mg/kg, po administered via gavage twice a day for 10 days relative to SASP; type: functional; details: dose 25-100 mg/kg; time 10 day
Mus musculus [4] = assay: Anti-colitis activity against DSS-induced colitis in C57BL/6 mouse model assessed as decrease in MPO level in colon at 25 mg/kg, po administered via gavage twice a day for 10 days; type: functional; set-up: scale not given: the % may be the effect or the level left; details: time 10 day
[5] = Toxicity in healthy C57BL/6 mouse assessed as histological changes in heart at 100 mg/kg, po administered for 10 days by H and E staining based assay; type: organism-based; details: in vivo, 240 h, time 10 day
[6] = Metabolic stability in healthy C57BL/6 mouse colon assessed as half life measured up to 12 hrs by HPLC analysis; type: ADME, tissue-based
Mus musculus [7] = assay: Anti-colitis activity against DSS-induced C57BL/6 mouse model of colitis assessed as decrease in MPO level in colon at 100 mg/kg, po administered via gavage twice a day for 10 days; type: functional; set-up: scale not given: the % may be the effect or the level left; details: time 10 day
Mus musculus [8] = assay: Anti-colitis activity against DSS-induced C57BL/6 mouse model of colitis assessed as restoration of intestinal barrier function by measuring fold increase in FITC-dextran level in plasma at 25 mg/kg, po administered via gavage twice a day for 10 days followed by FITC-dextran addition and measured after 4 hrs; type: functional; details: time 10 day
[9] = Stability in human Caco-2 cells homogenate assessed as half life measured up to 12 hrs by HPLC analysis; type: ADME, cell-based; details: Caco-2 cell homogenate
[10] = Toxicity in healthy C57BL/6 mouse assessed as histological changes in kidney at 100 mg/kg, po administered for 10 days by H and E staining based assay; type: organism-based; details: in vivo, 240 h, time 10 day
Mus musculus [11] = assay: Anti-colitis activity against DSS-induced C57BL/6 mouse model of colitis assessed as fold change in disease activity index at 25 to 100 mg/kg, po administered via gavage twice a day for 10 days relative to SASP; type: functional; details: dose 25-100 mg/kg; time 10 day
[12] = Chemical stability in phosphate buffer at pH 6.8 assessed as half life measured up to 12 hrs by HPLC analysis; type: physicochemical
[13] = AUC (0 to 6 hrs) in healthy C57BL/6 mouse at 25 mg/kg, po measured up to 6 hrs by UPLC-MS/MS analysis; type: ADME, organism-based; set-up: route oral, dose 25 mg/kg, time <=6; details: in vivo
[14] = Metabolic stability in healthy C57BL/6 mouse plasma assessed as half life measured up to 12 hrs by HPLC analysis; type: ADME, cell-free
[15] = Toxicity in healthy C57BL/6 mouse assessed as histological changes in liver at 100 mg/kg, po administered for 10 days by H and E staining based assay; type: organism-based; details: in vivo, 240 h, time 10 day
Mus musculus [16] = assay: Antiinflammatory activity in DSS-induced C57BL/6 mouse model of colitis assessed as decrease in TNF-alpha level 25 to 100 mg/kg, po administered via gavage twice a day for 10 days; type: functional, organism-based; details: dose 25-100 mg/kg, time 10.0 day
Mus musculus [17] = assay: Anti-colitis activity against DSS-induced colitis in C57BL/6 mouse model assessed as fold decrease in disease activity index at 25 mg/kg, po administered via gavage twice daily for 10 days relative to control; type: functional; details: time 10 day
[18] = Metabolic stability in healthy C57BL/6 mouse colonic flora homogenate assessed as half life measured up to 12 hrs by HPLC analysis; type: ADME
[19] = Cmax in healthy C57BL/6 mouse at 25 mg/kg, po measured up to 6 hrs by UPLC-MS/MS analysis; type: ADME, organism-based; set-up: route oral, dose 25 mg/kg, time <=6; details: in vivo
[20] = Metabolic stability in healthy C57BL/6 mouse jejunum assessed as half life measured up to 12 hrs by HPLC analysis; type: ADME, tissue-based
[21] = Toxicity in healthy C57BL/6 mouse assessed as effect on colon length at 100 mg/kg, po administered for 10 days; type: organism-based; details: in vivo, 240 h, time 10 day
[22] = Tmax in DSS-induced colitis C57BL/6 mouse model at 25 mg/kg, po measured up to 6 hrs by UPLC-MS/MS analysis; type: ADME, organism-based; details: in vivo
[23] = Metabolic stability in DSS-induced C57BL/6 mouse colon assessed as half life measured up to 12 hrs by HPLC analysis; type: ADME, tissue-based
[24] = Stability in simulated gastric fluid at pH 1.2 assessed as half life measured up to 12 hrs by HPLC analysis; type: ADME
[25] = Toxicity in healthy C57BL/6 mouse assessed as histological changes in lung at 100 mg/kg, po administered for 10 days by H and E staining based assay; type: organism-based; details: in vivo, 240 h, time 10 day
[26] = Metabolic stability in DSS-induced C57BL/6 inflammatory mouse model colonic flora homogenate assessed as half life measured up to 12 hrs by HPLC analysis; type: ADME; details: C57BL/6, mouse
[27] = Metabolic stability in healthy C57BL/6 mouse liver assessed as half life measured up to 12 hrs by HPLC analysis; type: ADME, tissue-based
[28] = Chemical stability in phosphate buffer at pH 7.2 assessed as half life measured up to 12 hrs by HPLC analysis; type: physicochemical
[29] = Cmax in DSS-induced colitis C57BL/6 mouse model at 25 mg/kg, po measured up to 6 hrs by UPLC-MS/MS analysis; type: ADME, organism-based; set-up: route oral, dose 25 mg/kg, time <=6; details: in vivo
[30] = Toxicity in healthy C57BL/6 mouse assessed as change in body weight at 100 mg/kg, po administered for 10 days; type: organism-based; details: in vivo, 240 h, time 10 day
Mus musculus [31] = assay: Antiinflammatory activity in DSS-induced C57BL/6 mouse model of colitis assessed as increase in IL-10 level 25 to 100 mg/kg, po administered via gavage twice a day for 10 days; type: functional, organism-based; details: dose 25-100 mg/kg, time 10.0 day
[32] = Stability in simulated intestinal fluid at pH 6.8 assessed as half life measured up to 12 hrs by HPLC analysis; type: ADME

O=C(O)[C@@H](CO)NC(=O)[C@H]1C[C@@H](O)CN1
Tmax [1]: 4 h
Activity (Mus musculus [2]): Active
fold change (FC) (Mus musculus [3]): 2.1
Activity (Mus musculus [4]): 72.8%
Activity [5]: Non-Toxic
half-life [6]: > 12 h
Activity (Mus musculus [7]): 59.7%
fold change (FC) (Mus musculus [8]): 10.7
half-life [9]: > 12 h
Activity [10]: Non-Toxic
fold change (FC) (Mus musculus [11]): 2.3
half-life [12]: > 12 h
AUC [13]: 16.61 microM/L.hr
half-life [14]: > 12 h
Activity [15]: Non-Toxic
Activity (Mus musculus [16]): Active
fold change (FC) (Mus musculus [17]): 1.5
half-life [18]: > 12 h
Cmax [19]: 5.79 µM
half-life [20]: > 12 h
Activity [21]: Non-Toxic
Tmax [22]: 4 h
half-life [23]: > 12 h
half-life [24]: > 12 h
Activity [25]: Non-Toxic
half-life [26]: > 12 h
half-life [27]: > 12 h
half-life [28]: > 12 h
Cmax [29]: 24 µM
Activity [30]: Non-Toxic
Activity (Mus musculus [31]): Active
half-life [32]: > 12 h
